Test results published in ChEMBL document CHEMBL1128122, “Synthesis of 1,25-dihydroxy-22-thiavitamin D3 and related analogs” (1995).

Tested on: HL-60
Test: In vitro differentiation-inducing activity of human myeloid leukemia cells (HL-60) into macrophages; compound showed potent activity
Assay type: functional, cell-based

C=C1/C(=C\C=C2/CCC[C@@]3(C)C2CCC3[C@@H](C)SCCC(O)(CC)CC)C[C@@H](O)C[C@@H]1O (stereo partly specified)
Activity: compound showed potent activity
